Values after ≈ are worked out from the molar mass of the structure shown.
Assays:
Assay type in all cases: cell-based
[1] = test system: Staph. aureus; assay: MIC by serial dilution on iso-sensitest agar, Staph. aureus; settings: Staphylococcus aureus, 37° C., about 20 hours
Method: (§1) The minimum inhibitory concentrations (MIC) of the compounds according to the invention were determined by serial dilution methods on iso-sensitest agar (Oxoid). For each test substance, a number of agar plates were prepared which, each with a doubled dilution, contained decreasing concentrations of the active compound. The agar plates were inoculated using a multipoint inoculator (Denley). For inoculation, overnight cultures of the pathogens were used which had previously been diluted such that each inoculation point contained about 10^4 colony-forming particles. The inoculated agar plates were incubated at 37° C., and the bacterial growth was read off after about 20 hours. The MIC value (μg/ml) indicates the lowest active compound concentration at which no growth could be detected with the naked eye.

[2] = test system: Staph. interm.; assay: MIC by serial dilution on iso-sensitest agar, Staph. interm.; settings: strain ATCC 29663; 37° C., about 20 hours
Method: as §1

[3] = test system: Staph. hyicus; assay: MIC by serial dilution on iso-sensitest agar, Staph. hyicus; settings: Staphylococcus hyicus, 20 h, 37° C., about 20 hours
Method: as §1

[4] = strain 9621, actual clinical isolate
[5] = strain 9622, actual clinical isolate
[6] = strain 9637, actual clinical isolate
[7] = strain 9641, actual clinical isolate

Structure (SMILES) | MIC ([1]; ATCC6538, strain ATCC 6538) [µg/mL] | MIC ([1]; ATCC25923, strain ATCC 25923) [µg/mL] | MIC ([1]; ATCC29213, strain ATCC 29213) [µg/mL] | MIC [2] [µg/mL] | MIC [3, 4] [µg/mL] | MIC [3, 5] [µg/mL] | MIC [3, 6] [µg/mL] | MIC [3, 7] [µg/mL]
CCC(C)C(=O)C(=O)NCCc1cn(C(C)C)c2ccccc12 (stereo not shown) [Compound 3] | 0.03 (≈ 0.0954 µM) | 0.03 (≈ 0.0954 µM) | 0.03 (≈ 0.0954 µM) | 4 (≈ 12.7 µM) | 1 (≈ 3.18 µM) | 0.5 (≈ 1.59 µM) | 0.03 (≈ 0.0954 µM) | 0.03 (≈ 0.0954 µM)
CC(C)CC(=O)C(=O)NCCc1cn(C)c2ccccc12 [Compound 2] | 0.03 (≈ 0.105 µM) | 0.03 (≈ 0.105 µM) | 0.03 (≈ 0.105 µM) | 2 (≈ 6.98 µM) | 0.03 (≈ 0.105 µM) | 0.03 (≈ 0.105 µM) | 0.03 (≈ 0.105 µM) | 0.03 (≈ 0.105 µM)
CCC(C)C(=O)C(=O)NCCc1c[nH]c2ccccc12 (stereo not shown) [A, reference compound] | 0.25 (≈ 0.918 µM) | 0.125 (≈ 0.459 µM) | 0.125 (≈ 0.459 µM) | 8 (≈ 29.4 µM) | 1 (≈ 3.67 µM) | 0.5 (≈ 1.84 µM) | 0.25 (≈ 0.918 µM) | 0.25 (≈ 0.918 µM)
CC(C)CC(=O)C(=O)NCCc1c[nH]c2ccccc12 [B, reference compound] | 0.125 (≈ 0.459 µM) | 0.25 (≈ 0.918 µM) | 0.25 (≈ 0.918 µM) | 2 (≈ 7.34 µM) | 0.25 (≈ 0.918 µM) | 0.03 (≈ 0.11 µM) | 0.25 (≈ 0.918 µM) | 0.25 (≈ 0.918 µM)
CCC(C)C(=O)C(=O)NCCc1cn(Cc2ccccc2)c2ccccc12 (stereo not shown) [Compound 6] | 0.125 (≈ 0.345 µM) | 0.125 (≈ 0.345 µM) | 0.125 (≈ 0.345 µM) | 8 (≈ 22.1 µM) | 1 (≈ 2.76 µM) | 1 (≈ 2.76 µM) | 0.125 (≈ 0.345 µM) | 0.125 (≈ 0.345 µM)
CC(C)CC(=O)C(=O)NCCc1cn(C(C)C)c2ccccc12 [Compound 4] | 0.125 (≈ 0.398 µM) | 0.06 (≈ 0.191 µM) | 0.25 (≈ 0.795 µM) | 2 (≈ 6.36 µM) | 0.06 (≈ 0.191 µM) | 0.25 (≈ 0.795 µM) | 0.125 (≈ 0.398 µM) | 0.125 (≈ 0.398 µM)
CC(C)CC(=O)C(=O)NCCc1cn(-c2ccccc2)c2ccccc12 [Compound 5] | 0.03 (≈ 0.0861 µM) | 0.06 (≈ 0.172 µM) | 0.06 (≈ 0.172 µM) | 1 (≈ 2.87 µM) | 0.06 (≈ 0.172 µM) | 0.015 (≈ 0.043 µM) | 0.06 (≈ 0.172 µM) | 0.06 (≈ 0.172 µM)
CCC(C)C(=O)C(=O)NCCc1cn(C)c2ccccc12 (stereo not shown) [Compound 1] | 0.015 (≈ 0.0524 µM) | 0.015 (≈ 0.0524 µM) | 0.015 (≈ 0.0524 µM) | 2 (≈ 6.98 µM) | 0.06 (≈ 0.21 µM) | 0.06 (≈ 0.21 µM) | 0.015 (≈ 0.0524 µM) | 0.015 (≈ 0.0524 µM)

Source: patent US6255335A, “Substituted 2-oxo-alkanoic acid-[2-(indol-3-yl)-ethyl] amides” (Bayer Aktiengesellschaft, priority 1998, dated 2001)
